Patent US20140011676A1, “1, 8 -DIAZASPIRO [4.5] DECANE- 2, 4 -DIONE DERIVATIVES USEFUL AS PESTICIDES” (SYNGENTA PARTICIPATIONS AG, priority 2010, published 2014)
Where two headings read alike, the source gives them in different places.

Key:
cabbage plants = conditions: in vivo, 6 days, 200 ppm
[1] = system: Myzus persicae (green peach aphid); assay: Activity against Myzus persicae on cabbage plants, feeding/residual contact activity, spray chamber; format: in vivo; conditions: 144 h, 6 days after treatment
[2] = system: Myzus persicae (green peach aphid); assay: Activity against Myzus persicae, mixed population, systemic/feeding activity, curative (pea seedlings); conditions: 144 h, read-out: activity (mortality) against Myzus persicae, systemic
[3] = system: Thrips tabaci (onion thrips); conditions: foliar, 144 h, read-out: activity (mortality) against Thrips tabaci
[4] = system: Myzus persicae (green peach aphid); conditions: foliar, 144 h, read-out: activity (mortality) against Myzus persicae
[5] = system: Tetranychus urticae (two-spotted spider mite); assay: whole plant or invertebrate; conditions: foliar, 192 h, read-out: activity (egg, larval and adult mortality) against Tetranychus urticae

Compound	damage to cabbage plants (phytotoxicity) (cabbage plants) [%]	mortality at 200 ppm [1] [%]	mortality at 400 ppm [2] [%]	mortality at 400 ppm [3] [%]	mortality at 400 ppm [4] [%]	mortality at 400 ppm [5] [%]	melting point [°C]
CON1CCC2(CC1)C(=O)C(Cl)(c1c(C)cc(C)cc1C)C(=O)N2CC1CCCO1 (stereo not shown) [Compound P1.8]	≤ 10	≥ 80					
CON1CCC2(CC1)C(=O)C(Cl)(c1c(C)cc(C)cc1C)C(=O)N2C (stereo not shown) [Compound P1.4]	≤ 10	≥ 80	> 80	> 80	> 80		
CCc1cc(Cl)cc(C)c1C1(Cl)C(=O)N(C)C2(CCN(OC)CC2)C1=O (stereo not shown) [Compound P1.11]	≤ 10	≥ 80			> 80		
CON1CCC2(CC1)C(=O)C(Cl)(c1c(C)ccc(-c3ccc(Cl)cc3)c1C)C(=O)N2C (stereo not shown) [Compound P1.12]	≤ 10	≥ 80			> 80		
CON1CCC2(CC1)C(=O)C(Cl)(c1cc(Br)c(C)cc1C)C(=O)N2C (stereo not shown) [Compound P1.2]	≤ 10	≥ 80		> 80	> 80		
CON1CCC2(CC1)C(=O)C(Cl)(c1cc(C)c(C)cc1Cl)C(=O)N2C (stereo not shown) [Compound P1.1, 3-Chloro-3-(2-chloro-4,5-dimethyl-phenyl)-8-methoxy-1-methyl-1,8-diaza-spiro[4.5]decane-2,4-dione]					> 80	> 80	
COCCN1C(=O)C(Cl)(c2c(C)cc(Cl)cc2C)C(=O)C12CCN(OC)CC2 (stereo not shown) [Compound P1.14]	≤ 10	≥ 80			> 80		
COc1cc(Cl)cc(C)c1C1(Cl)C(=O)N(C)C2(CCN(OC)CC2)C1=O (stereo not shown) [Compound P1.10]							115 to 117
CON1CCC2(CC1)C(=O)C(Cl)(c1cc(C)c(C)cc1C)C(=O)N2CC1CC1 (stereo not shown) [Compound P1.6]	≤ 10	≥ 80					
CON1CCC2(CC1)C(=O)C(Cl)(c1c(C)cc(Br)cc1C)C(=O)N2C (stereo not shown) [Compound P1.3]	≤ 10	≥ 80	> 80		> 80		
CON1CCC2(CC1)C(=O)C(c1c(C)cc(C)cc1C)([N+](=O)[O-])C(=O)N2C (stereo not shown) [Compound P1.13, 8-Methoxy-1-methyl-3-nitro-3-(2,4,6-trimethyl-phenyl)-1,8-diaza-spiro[4.5]decane-2,4-dione]	≤ 10	≥ 80			> 80		
CON1CCC2(CC1)C(=O)C(Cl)(c1c(C)cccc1C)C(=O)N2C (stereo not shown) [Compound P1.7]	≤ 10	≥ 80	> 80				
CON1CCC2(CC1)C(=O)C(Cl)(c1cc(C)ccc1C)C(=O)N2C (stereo not shown) [Compound P1.5, 3-Chloro-3-(2,5-dimethyl-phenyl)-8-methoxy-1-methyl-1,8-diaza-spiro[4.5]decane-2,4-dione]	≤ 10	≥ 80					
